From patent US9169240B2, “Ketone linked benzothiazole inhibitors of endothelial lipase” (BRISTOL-MYERS SQUIBB COMPANY, priority 2012, dated 2015)

Target: Endothelial lipase (EL) (Homo sapiens (Human), UniProt Q9Y5X9)
Assay: Endothelial lipase (EL) activity assay with fluorescent substrate A10070 in DMPG vesicles
Format: biochemical
Description: Endothelial lipase activity was measured using a fluorescent substrate, A10070, (Invitrogen, CA) doped into an artificial vesicle containing DMPG (Avanti Polar Lipids) as the excipient. Vesicles were prepared by combining 285 μL of 1 mM DMPG in a 1:1 mixture of MeOH and CHCl3 with 15 μL of 1 mM A10070 in a 1:1 mixture of MeOH and CHCl3. The mixture was dried under nitrogen and resuspended in 150 μL of 50 mM HEPES pH 8.0 buffer containing 100 mM NaCl and 0.2 mM EDTA. The sample was allowed to sit at rt for 15 min and then was sonicated 3×4 mins on ice with a Branson Sonicator using duty cycle 1. This preparation provides vesicles with a mole fraction of 0.05 for the FRET substrate.
The enzymatic assay was measured using white, opaque 96-well half area plates. Each well contained 60 μL of assay buffer (50 mM HEPES pH 8.0, 50 mM NaCl and 1 mM CaCl2) and 2 ul of a DMSO solution containing compound of interest. Conditioned media obtained from HT-1080 cells, which were transformed by RAGE technology (Athersys) to overexpress endogenous EL, was added and the reaction was allowed to incubate for 20 min at 37° C. with gentle agitation. The reaction was started by the addition of 20 μL of a 1:4 dilution of vesicles. The final total reaction volume was 100 μL. The reaction rates were measured on a Gemini plate reader with an excitation wavelength of 488 nm and an emission of 530 nm. Readings were taken every 20 seconds for 10 min with agitation between each reading. The slope of the linear portion of the readout was used to calculate the rate of the reaction.

Sequence of Endothelial lipase (EL) (Q9Y5X9 21-500): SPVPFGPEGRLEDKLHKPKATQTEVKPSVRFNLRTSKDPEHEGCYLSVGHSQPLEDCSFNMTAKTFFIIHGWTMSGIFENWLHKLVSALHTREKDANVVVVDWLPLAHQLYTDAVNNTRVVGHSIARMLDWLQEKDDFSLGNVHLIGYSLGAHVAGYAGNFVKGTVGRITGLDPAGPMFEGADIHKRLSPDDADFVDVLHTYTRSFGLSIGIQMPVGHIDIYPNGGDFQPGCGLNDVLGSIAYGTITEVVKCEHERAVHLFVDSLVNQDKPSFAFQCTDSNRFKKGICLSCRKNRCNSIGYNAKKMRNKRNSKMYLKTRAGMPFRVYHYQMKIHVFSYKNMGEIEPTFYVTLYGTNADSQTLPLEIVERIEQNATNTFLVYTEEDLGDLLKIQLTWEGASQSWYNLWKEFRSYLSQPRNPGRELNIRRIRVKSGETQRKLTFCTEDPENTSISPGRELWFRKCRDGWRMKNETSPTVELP

CC(C)N1C(=O)NC(C)(Cc2nnc(C(=O)c3nc4ccc(-c5ccccc5)cc4s3)o2)C1=O (stereo not drawn) [Example 39, 3-isopropyl-5-methyl-5-((5-(6-phenylbenzo-[d]thiazole-2-carbonyl)-1,3,4-oxadiazol-2-yl)methyl)-imidazol-idine-2,4-dione]
IC50: < 10 nM

O=C(c1nnc(CC2NC(=O)N(c3ccccc3)C2=O)o1)c1nc2ccc(-c3ccccc3)cc2s1 (stereo not drawn) [Example 41, 3-phenyl-5-((5-(6-phenylbenzo[d]thiazole-2-carbonyl)-1,3,4-oxadiazol-2-yl)methyl)-imidazol-idine-2,4-dione]
IC50: 16 nM

CC(C)(C)CN1CC(c2nnc(C(=O)c3nc4ccc(-c5ccccc5)cc4s3)o2)C1 [Example 42]
IC50: 20 nM

CC(C)(C)CN1CCC(c2nnc(C(=O)c3nc4ccc(-c5ccccc5)cc4s3)o2)CC1 [Example 45, (5-(1-Neopentylpiperidin-4-yl)-1,3,4-oxadiazol-2-yl)(6-phenylbenzo[d]thiazol-2-yl)methanone]
IC50: 14 nM

COc1nc(-c2nnc(C(=O)c3nc4ccc(-c5ccccc5)cc4s3)o2)c(O)c(=O)[nH]1 [Example 47, 5-Hydroxy-2-methoxy-6-(5-(6-phenylbenzo[d]thiazole-2-carbonyl)-1,3,4-oxadiazol-2-yl)pyrimidin-4(3H)-one]
IC50: 19 nM

NC(=O)NCc1nnc(C(=O)c2nc3ccc(-c4ccccc4)cc3s2)o1 [Example 49, 1-((5-(6-Phenylbenzo[d]thiazole-2-carbonyl)-1,3,4-oxadiazol-2-yl)methyl)urea]
IC50: 25 nM

O=C(Cc1nnc(C(=O)c2nc3ccc(-c4ccccc4)cc3s2)o1)NC1CC1 [Example 50, N-Cyclopropyl-2-(5-(6-phenylbenzo[d]thiazole-2-carbonyl)-1,3,4-oxadiazol-2-yl)acetamide]
IC50: < 10 nM

NC(=O)c1ccc(-c2ccc3nc(C(=O)c4nnc(N[C@H]5CCNC5=O)o4)sc3c2)cc1 [Example 51, (S)-4-(2-(5-((2-Oxopyrrolidin-3-yl)amino)-1,3,4-oxadiazole-2-carbonyl)benzo[d]thiazol-6-yl)benzamide]
IC50: < 10 nM

COCCNc1nnc(C(=O)c2nc3ccc(-c4ccccc4)cc3s2)o1 [Example 52, (5-((2-methoxyethyl)amino)-1,3,4-oxadiazol-2-yl)(6-phenylbenzo[d]thiazol-2-yl)methanone]
IC50: 110 nM

O=C(c1nnc(N[C@H]2CCNC2=O)o1)c1nc2ccc(-c3ccccc3)cc2s1 [Example 53, (S)-3-((5-(6-phenylbenzo[d]thiazole-2-carbonyl)-1,3,4-oxadiazol-2-yl)amino)pyrrolidin-2-one]
IC50: < 10 nM

O=C(c1nnc(N[C@H]2CCNC2=O)o1)c1nc2ccc(-c3ccc(F)cc3)cc2s1 [Example 54, (S)-3-((5-(6-(4-fluorophenyl)benzo [d]thiazole-2-carbonyl)-1,3,4-oxadiazol-2-yl)amino)pyrrolidin-2-one]
IC50: < 10 nM

O=C(c1nnc(N[C@H]2CCNC2=O)o1)c1nc2c(F)cc(-c3ccccc3)cc2s1 [Example 55, (S)-3-((5-(4-fluoro-6-phenylbenzo[d]thiazole-2-carbonyl)-1,3,4-oxadiazol-2-yl)amino)pyrrolidin-2-one]
IC50: 10 nM

O=C(c1nnc(N[C@@H]2CCNC2=O)o1)c1nc2ccc(-c3ccccc3)cc2s1 [Example 56, (R)-3-((5-(6-phenylbenzo[d]thiazole-2-carbonyl)-1,3,4-oxadiazol-2-yl)amino)pyrrolidin-2-one]
IC50: 46 nM

O=C(c1nnc(N[C@H]2CCOC2=O)o1)c1nc2ccc(-c3ccccc3)cc2s1 [Example 57, (S)-3-((5-(6-phenylbenzo[d]thiazole-2-carbonyl)-1,3,4-oxadiazol-2-yl)amino)dihydrofuran-2(3H)-one]
IC50: 22 nM

NC(=O)CNc1nnc(C(=O)c2nc3ccc(-c4ccccc4)cc3s2)o1 [Example 58, 2-((5-(6-phenylbenzo[d]thiazole-2-carbonyl)-1,3,4-oxadiazol-2-yl)amino) acetamide]
IC50: 104 nM
